Among the data in patent US20230212163A1, “2-(HET)ARYL-SUBSTITUTED CONDENSED HETEROCYCLIC DERIVATIVES AS PEST CONTROL AGENTS” (Bayer Aktiengesellschaft, priority 2020, published 2023) are chromatographic logP, activity and pest or weed control values, retold here.

Data set [1] can be described thus: logP by HPLC on reversed-phase column (C18). Format: physicochemical. As to conditions: LC-UV. Here is the method: The logP values were determined according to EEC Directive 79/831 Annex V.A8 by HPLC (high-performance liquid chromatography) on a reversed-phase column (C18) using the following methods: ^[a]The logP value is determined by LC-UV measurement in the acidic range using 0.9 ml/l formic acid in water and 1.0 ml/l formic acid in acetonitrile as mobile phases (linear gradient from 10% acetonitrile to 95% acetonitrile). ^[b]The logP value is determined by LC-UV measurement in the neutral range using 0.001 molar ammonium acetate solution in water and acetonitrile as mobile phases (linear gradient from 10% acetonitrile to 95% acetonitrile). Calibration was carried out using straight-chain alkan-2-ones (having 3 to 16 carbon atoms) with known logP values. The values between successive alkanones are determined by linear regression.

A further data set has as its system Phaedon cochleariae. Kind of data set: Phaedon cochleariae spray test. Format: in vivo. As to conditions: application rate 100 g/ha, after 7 days. As to the method: (§1) [table] To produce a suitable active compound formulation, 1 part by weight of active compound is dissolved using the stated parts by weight of solvent and made up with water containing an emulsifier concentration of 1000 ppm until the desired concentration is attained. To produce further test concentrations, the formulation is diluted with emulsifier-containing water. Discs of Chinese cabbage leaves (Brassica pekinensis) are sprayed with an active compound formulation of the desired concentration and, after drying, populated with larvae of the mustard beetle (Phaedon cochleariae). After 7 days, the efficacy in % is determined. 100% means that all the beetle larvae have been killed; 0% means that no beetle larvae have been killed.

In the next data set the test system is Spodoptera frugiperda. Kind of data set: Spodoptera frugiperda spray test (maize leaf discs). It counts as in vivo. As to conditions: application rate 100 g/ha, after 7 days; for pest or weed control at 100 g/ha: Spodoptera frugiperda, foliar, 168 h. Here is the method:
as §1, with “water. Leaf discs” for “water. Discs”, “of maize (Zea mays)” for “of Chinese cabbage leaves (Brassica pekinensis)”, “with caterpillars” for “with larvae”, “the fall armyworm (Spodoptera frugiperda).” for “the mustard beetle (Phaedon cochleariae).”, “the caterpillars” for “the beetle larvae”, “no caterpillar has” for “no beetle larvae have”

For a further data set, the system named is Myzus persicae. Kind of data set: Myzus persicae oral test. As to conditions: 120 h, application rate 4 ppm, after 5 days, read-out: efficacy. Format: in vivo. Here is the method:
[table] To produce a suitable active compound formulation, 1 part by weight of active compound is dissolved using the specified parts by weight of solvent and made up with water until the desired concentration is attained. 50 μl of the active compound formulation are transferred into microtitre plates and made up to a final volume of 200 μl with 150 μl of IPL41 insect medium (33%+15% sugar). Subsequently, the plates are sealed with parafilm, which a mixed population of green peach aphids (Myzus persicae) within a second microtitre plate is able to puncture and imbibe the solution through. After 5 days, the efficacy in % is determined. 100% means that all the aphids have been killed; 0% means that no aphids have been killed.

The next data set deals with Diabrotica balteata. Kind of data set: Diabrotica balteata spray test. Format: in vivo. As to conditions: after 7 days; for pest or weed control at 31.25 g/ha / pest or weed control at 125 g/ha / pest or weed control at 500 g/ha / pest or weed control at 100 g/ha / pest or weed control at 20 g/ha: Diabrotica balteata, 168 h; for pest or weed control at 31.25 g/ha: application rate 31.25 g/ha (=10 μg/cavity); for pest or weed control at 31.25 g/ha / pest or weed control at 125 g/ha / pest or weed control at 500 g/ha: read-out: efficacy; for pest or weed control at 125 g/ha: application rate 125 g/ha (=40 μg/cavity); for pest or weed control at 500 g/ha: application rate 500 g/ha (=160 μg/cavity); for pest or weed control at 20 g/ha: application rate 20 g/ha. Here is the method:
[table] To produce a suitable active compound formulation, 1 part by weight of active compound is dissolved using the stated parts by weight of solvent and made up with water containing an emulsifier concentration of 1000 ppm until the desired concentration is attained. To produce further test concentrations, the formulation is diluted with emulsifier-containing water. Pre-swollen wheat grains (Triticum aestivum) are incubated in a multiwell plate filled with agar and a little water for one day (5 seed grains per cavity). The germinated wheat grains are sprayed with an active compound formulation of the desired concentration. Subsequently, each cavity is infected with 10-20 beetle larvae of Diabrotica balteata. After 7 days, the efficacy in % is determined. 100% means that all wheat plants have grown as in the untreated, uninfected control; 0% means that no wheat plant has grown.

For the next data set, the system named is Nezara viridula. Kind of data set: Nezara viridula spray test. As to conditions: application rate 500 g/ha, after 4 days; for pest or weed control at 500 g/ha: Nezara viridula, 96 h. Format: in vivo. As to the method:
[table] To produce a suitable active compound formulation, 1 part by weight of active compound is dissolved using the stated parts by weight of solvent and made up with water containing an emulsifier concentration of 1000 ppm until the desired concentration is attained. To produce further test concentrations, the formulation is diluted with emulsifier-containing water. Barley plants (Hordeum vulgare) are sprayed with an active compound formulation of the desired concentration and are infected with larvae of the Southern green shield bug (Nezara viridula). After 4 days, the efficacy in % is determined. 100% means that all of the shield bugs have been killed; 0% means that none of the shield bugs have been killed.

Where [2] appears, read: neutral range, ammonium acetate/acetonitrile, read-out: logP (neutral).

Where two headings read alike, the source gives them in different places.

Take `O=S(=O)(c1ccc2oc(-c3nc(F)ccc3F)nc2c1)C(F)(F)F` [2-(3,6-Difluoro-2-pyridyl)-5-(trifluoromethylsulfonyl)-1,3-benzoxazole]: in data set [1] (setting [2]), the chromatographic logP turned out to be 3.06.
Regarding `CCSc1ccc(F)nc1-c1nc2cc(S(=O)(=O)C(F)(F)F)ccc2o1` [2-(3-Ethylsulfanyl-6-fluoro-2-pyridyl)-5-(trifluoromethylsulfonyl)-1,3-benzoxazole], the chromatographic logP in data set [1] (acidic range, formic acid in water/acetonitrile, read-out: logP (acidic)) amounted to 4.13.
`CCS(=O)(=O)c1ccc(F)nc1-c1nc2cc(S(=O)(=O)C(F)(F)F)ccc2o1` [2-(3-Ethylsulfonyl-6-fluoro-2-pyridyl)-5-(trifluoromethylsulfonyl)-1,3-benzoxazole]: the chromatographic logP in data set [1] (setting [2]) is 3.11.
Compound `CCS(=O)(=O)c1ccc(N2N=CC(c3ccccc3)C2=O)nc1-c1nc2cc(S(=O)(=O)C(F)(F)F)ccc2o1` (centres unmarked) [Example I-01] yielded an activity in the data set with Phaedon cochleariae of 100%. In the data set on Spodoptera frugiperda, the pest or weed control at 100 g/ha is 100%. Moreover, the pest or weed control at 4 ppm in the data set with Myzus persicae is 100%.
Take `CCS(=O)(=O)c1ccc(-n2ncn(-c3ccc(Br)cc3)c2=O)nc1-c1nc2cc(S(=O)(=O)C(F)(F)F)ccc2o1` [Example I-05]: the pest or weed control at 100 g/ha with Spodoptera frugiperda stood at 100%. Also, in the data set with Diabrotica balteata, the pest or weed control at 31.25 g/ha amounted to 100%, the pest or weed control at 125 g/ha came out at 100% and the pest or weed control at 500 g/ha was 100%. Also, the pest or weed control at 4 ppm with Myzus persicae stood at 100%.
As to `CCS(=O)(=O)c1ccc(-n2ncn(-c3ccc(C#N)cc3)c2=O)nc1-c1nc2cc(S(=O)(=O)C(F)(F)F)ccc2o1` [Example I-06], the pest or weed control at 100 g/ha in the data set with Spodoptera frugiperda turned out to be 100%. Besides, in the data set with Diabrotica balteata, the pest or weed control at 31.25 g/ha was 100%, the pest or weed control at 125 g/ha was 100% and the pest or weed control at 500 g/ha is 100%. Besides, the pest or weed control at 4 ppm in the data set with Myzus persicae amounted to 90%.
Take `CCS(=O)(=O)c1ccc(-n2ncn(-c3cccc(F)c3)c2=O)nc1-c1nc2cc(S(=O)(=O)C(F)(F)F)ccc2o1` [Example I-14, 2-[5-Ethylsulfonyl-6-[5-(trifluoromethylsulfonyl)-1,3-benzoxazol-2-yl]-2-pyridyl]-4-(3-fluorophenyl)-1,2,4-triazol-3-one]: the pest or weed control at 100 g/ha in the data set with Spodoptera frugiperda and in the data set on Diabrotica balteata (application rate 100 g/ha) was 100% in each case. For the same compound, in data set [1] (setting [2]), the chromatographic logP amounted to 3.43. Also, the pest or weed control at 500 g/ha in the data set with Diabrotica balteata was determined as 100%. Also, the pest or weed control at 4 ppm in the data set with Myzus persicae worked out at 90%.
Turning to `CCS(=O)(=O)c1ccc(-n2ncn(-c3cccc(I)c3)c2=O)nc1-c1nc2cc(S(=O)(=O)C(F)(F)F)ccc2o1` [Example I-16], the pest or weed control at 100 g/ha with Spodoptera frugiperda and in the data set on Diabrotica balteata (application rate 100 g/ha) was 100% in each case. Besides, the pest or weed control at 500 g/ha with Diabrotica balteata was determined as 100%. Besides, the pest or weed control at 4 ppm in the data set on Myzus persicae was 90%.
As to `CCS(=O)(=O)c1ccc(-n2ncn(C3CC3C(F)(F)F)c2=O)nc1-c1nc2cc(S(=O)(=O)C(F)(F)F)ccc2o1` (centres unmarked) [Example I-39], the pest or weed control at 100 g/ha with Spodoptera frugiperda and in the data set on Diabrotica balteata (application rate 100 g/ha) was 100% throughout. For the same compound, the pest or weed control at 500 g/ha in the data set with Nezara viridula came to 100%.
Turning to `CCS(=O)(=O)c1ccc(-n2ncn(-c3cccc(Cl)c3)c2=O)nc1-c1nc2cc(S(=O)(=O)C(F)(F)C(F)(F)F)ccc2o1` [Example I-41], the pest or weed control at 100 g/ha with Spodoptera frugiperda and in the data set on Diabrotica balteata (application rate 100 g/ha) was 100% throughout. This compound displayed a pest or weed control at 500 g/ha with Nezara viridula of 100%. In the data set on Diabrotica balteata, this compound showed a pest or weed control at 20 g/ha of 100%.
As for `CCS(=O)(=O)c1ccc(-n2ncn(-c3cccc(Cl)c3)c2=O)nc1-c1nc2cc(S(=O)(=O)C(F)(F)C(F)(F)F)ccc2o1` [Example I-42], the results for the activity in the data set with Spodoptera frugiperda, in the data set on Nezara viridula and in the data set with Diabrotica balteata (application rate 100 g/ha) were 100%, 90% and 80%, respectively.
On to `CCS(=O)(=O)c1ccc(-n2ncn(-c3cccc(Br)c3)c2=O)nc1-c1nc2cc(C(F)(F)C(F)(F)F)ccc2o1` [Example I-44], for which the pest or weed control at 100 g/ha in the data set on Spodoptera frugiperda and with Diabrotica balteata (application rate 100 g/ha) was 100% each time. The pest or weed control at 500 g/ha with Nezara viridula is 100%. For the same compound, the pest or weed control at 20 g/ha in the data set on Diabrotica balteata worked out at 80%.
Turning to `CCS(=O)(=O)c1ccc(-n2ncn(-c3ccc(Cl)cc3)c2=O)nc1-c1nc2cc(C(F)(F)C(F)(F)F)ccc2o1` [Example I-45], the pest or weed control at 100 g/ha in the data set with Spodoptera frugiperda and in the data set with Diabrotica balteata (application rate 100 g/ha) was 100% throughout. In the data set on Nezara viridula, the pest or weed control at 500 g/ha worked out at 100%. Also, the pest or weed control at 20 g/ha with Diabrotica balteata worked out at 80%.
As to `CCS(=O)(=O)c1ccc(-n2ncn(-c3cccc(Cl)c3)c2=O)nc1-c1nc2cc(C(F)(F)C(F)(F)F)ccc2o1` [Example I-46], the pest or weed control at 100 g/ha in the data set on Spodoptera frugiperda turned out to be 100%; with Diabrotica balteata (application rate 100 g/ha), 80%. In the data set with Nezara viridula, this compound registered a pest or weed control at 500 g/ha of 90%. The pest or weed control at 20 g/ha in the data set on Diabrotica balteata was found to be 100%.
As to `CCS(=O)(=O)c1ccc(-n2ncn(-c3cccc(F)c3)c2=O)nc1-c1nc2cc(C(F)(F)C(F)(F)F)ccc2o1` [Example I-47], the pest or weed control at 100 g/ha came out at 100% with Spodoptera frugiperda and 80% in the data set with Diabrotica balteata (application rate 100 g/ha). The compound also showed a pest or weed control at 500 g/ha with Nezara viridula of 100%. The compound further gave a pest or weed control at 20 g/ha in the data set on Diabrotica balteata of 80%.
`CCS(=O)(=O)c1ccc(-n2ncn(-c3ccc(F)cc3)c2=O)nc1-c1nc2cc(S(=O)(=O)C(F)(F)C(F)(F)F)ccc2o1` [Example I-52]: the pest or weed control at 100 g/ha in the data set with Spodoptera frugiperda and in the data set with Diabrotica balteata (application rate 100 g/ha) was 100% in each case. The compound also displayed a pest or weed control at 500 g/ha with Nezara viridula of 100%. The pest or weed control at 20 g/ha in the data set on Diabrotica balteata turned out to be 100%.
Regarding `CCS(=O)(=O)c1ccc(-n2ncn(-c3ccc(F)cc3)c2=O)nc1-c1nc2cc(C(F)(F)C(F)(F)F)ccc2o1` [Example I-56], the pest or weed control at 100 g/ha in the data set on Spodoptera frugiperda and with Diabrotica balteata (application rate 100 g/ha) was 100% each time. The compound further showed a pest or weed control at 500 g/ha with Nezara viridula of 100%. In addition, the pest or weed control at 20 g/ha with Diabrotica balteata worked out at 100%.
